Target: T1, His6-PDK1 (aa 52-556) (Homo sapiens, UniProt O15530)
T1 construct: 15 μL His6-PDK1 (aa 52-556) 3.33 ng/well); host or cells: baculovirus-infected insect cells
T1 sequence (O15530 52-556): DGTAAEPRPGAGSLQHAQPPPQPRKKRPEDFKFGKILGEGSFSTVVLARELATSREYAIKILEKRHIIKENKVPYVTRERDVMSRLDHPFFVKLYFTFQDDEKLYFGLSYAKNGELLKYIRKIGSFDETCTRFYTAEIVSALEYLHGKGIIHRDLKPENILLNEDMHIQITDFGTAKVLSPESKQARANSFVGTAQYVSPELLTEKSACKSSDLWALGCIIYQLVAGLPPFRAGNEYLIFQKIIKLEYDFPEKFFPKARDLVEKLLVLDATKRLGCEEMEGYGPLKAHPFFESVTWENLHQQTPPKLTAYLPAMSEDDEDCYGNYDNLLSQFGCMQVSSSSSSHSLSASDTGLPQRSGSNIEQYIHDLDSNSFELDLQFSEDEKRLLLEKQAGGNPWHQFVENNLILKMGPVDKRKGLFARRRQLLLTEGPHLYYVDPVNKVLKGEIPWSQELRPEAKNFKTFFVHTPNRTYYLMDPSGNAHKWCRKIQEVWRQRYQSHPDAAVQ
Assay: PDK1 kinase assay III (with Tween 20)
Format: biochemical
Details: compound at 10 μM; PDK1 kinase assay III (values without asterisk); read-out: % CTL (residual activity of the enzyme relative to DMSO control)
Outline: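 Started with ATP, incubated 90 min at ambient temperature, then stopped with phosphoric acid. Asterisked values come from assay II (24 h or 5 min incubation).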

Structure (SMILES) | remaining activity at 10 µM
Cc1ncc(C(=O)NC/C=C/c2ccc3nc(Nc4ccc(CN(C)C)cc4)ncc3c2)c(=O)n1Cc1ccc(F)c(F)c1 | 13.8%
Cc1c(C(=O)NCC#Cc2cc(OCCN)c3nc(Nc4ccc(N5CCOCC5)cc4)ncc3c2)c(=O)n(Cc2ccc(F)c(F)c2)n1C | 13.8%
O=C(NC/C=C/c1ccc2nc(Nc3ccccn3)ncc2c1)c1cncn(Cc2ccc(F)c(F)c2)c1=O | 18.4%
Cc1c(C(=O)NCC#Cc2ccc3nc(NC4CCC4)ncc3c2)c(=O)n(Cc2ccc(F)c(F)c2)n1C | 12.3%
CCN1CCC(NC(=O)c2ccc(Nc3ncc4cc(C#CCNC(=O)c5c(C)n(C)n(Cc6ccc(F)c(F)c6)c5=O)ccc4n3)cc2)CC1 | 13.7%
Cc1c(C(=O)NC/C=C/c2ccc3nc(Nc4ccc(C(=O)O)cc4)ncc3c2)c(=O)n(Cc2ccc(F)c(F)c2)n1C | 12.9%
CN(C)CCNC(=O)c1ccc(Nc2ncc3cc(C#CCNC(=O)c4cncn(Cc5ccc(F)c(F)c5)c4=O)ccc3n2)cc1 | 18.5%
O=C1Nc2cc(/C=C/CNC(=O)c3cccc(Nc4ccc(F)c(F)c4)n3)ccc2/C1=C/c1ccc[nH]1 [I-19, 6-[(3,4-difluorophenyl)amino]-N-{(2E)-3-[(3Z)-2-oxo-3-(1H-pyrrol-2-ylmethylidene)-2,3-dihydro-1H-indol-6-yl]prop-2-en-1-yl}pyridine-2-carboxamide] | 36.9%
Cn1cc(C(=O)NC/C=C/c2ccc3c(c2)NC(=O)/C3=C\c2cnc[nH]2)c(=O)n(Cc2ccc(F)c(F)c2)c1=O [I-43] | 20.3%
Cc1c(C(=O)NC/C=C/c2ccc3nc(Nc4ccc(C(=O)NCCCN(C)C)cc4)ncc3c2)c(=O)n(Cc2ccc(F)c(F)c2)n1C | 16.9%
Cc1c(C(=O)NCC#Cc2ccc3nc(Nc4ccc(C(=O)N(C)CCO)cc4)ncc3c2)c(=O)n(Cc2ccc(F)c(F)c2)n1C | 14.4%
CNc1ncc2cc(/C=C/CNC(=O)c3c(C)n(C)n(Cc4ccc(F)c(F)c4)c3=O)ccc2n1 | 16.1%
CNc1ncc2cc(/C=C/CNC(=O)c3cncn(Cc4ccc(F)c(F)c4)c3=O)ccc2n1 | 21.7%
O=C(NC/C=C/c1ccc2nc(NC3CC3)ncc2c1)c1cncn(Cc2ccc(F)c(F)c2)c1=O | 17%
CN1CCC(NC(=O)c2ccc(Nc3ncc4cc(/C=C/CNC(=O)c5cncn(Cc6ccc(F)c(F)c6)c5=O)ccc4n3)cc2F)CC1 | 19.7%
O=C(NCC#Cc1cc(OC2CCNCC2)c2nc(Nc3ccc(N4CCOCC4)cc3)ncc2c1)c1cncn(Cc2ccc(F)c(F)c2)c1=O | 9.4%
COCCCNC(=O)c1ccc(Nc2ncc3cc(C#CCNC(=O)c4c(C)n(C)n(Cc5ccc(F)c(F)c5)c4=O)ccc3n2)cc1 | 12.1%
CNc1ncc2cc(C#CCNC(=O)c3c(C)n(C)n(Cc4ccc(F)c(F)c4)c3=O)ccc2n1 | 14.9%

The remaining lines, values ahead:

remaining activity at 10 µM | Structure (SMILES)
13.1% | Cc1c(C(=O)NCC#Cc2ccc3nc(Nc4ccc(NC5CCN(C)CC5)c(F)c4)ncc3c2)c(=O)n(Cc2ccc(F)c(F)c2)n1C [III-32, 2-(3,4-difluorobenzyl)-N-{3-[2-({3-fluoro-4-[(1-methylpiperidin-4-yl)amino]phenyl}amino)quinazolin-6-yl]prop-2-yn-1-yl}-1,5-dimethyl-3-oxo-2,3-dihydro-1H-pyrazole-4-carboxamide]
22.7% | Cc1c(C(=O)NCC#Cc2ccc3c(-c4ccco4)n[nH]c3c2)c(=O)n(Cc2ccc(F)c(F)c2)n1C [II-5, 2-(3,4-difluorobenzyl)-N-{3-[3-(furan-2-yl)-1H-indazol-6-yl]prop-2-yn-1-yl}-1,5-dimethyl-3-oxo-2,3-dihydro-1H-pyrazole-4-carboxamide]
21.4% | Cc1c(C(=O)NC/C=C\c2ccc3c(-c4ccco4)n[nH]c3c2)c(=O)n(Cc2ccc(F)c(F)c2)n1C [II-6, 2-(3,4-difluorobenzyl)-N-{(2Z)-3-[3-(furan-2-yl)-1H-indazol-6-yl]prop-2-en-1-yl}-1,5-dimethyl-3-oxo-2,3-dihydro-1H-pyrazole-4-carboxamide]
16.5% | Cc1c(C(=O)NC/C=C/c2ccc3nc(Nc4ccc(NC5CCN(C)CC5)c(F)c4)ncc3c2)c(=O)n(Cc2ccc(F)c(F)c2)n1C [IV-55, 2-(3,4-difluorobenzyl)-N-{(2E)-3-[2-({3-fluoro-4-[(1-methylpiperidin-4-yl)amino]-phenyl}amino)quinazolin-6-yl]prop-2-en-1-yl}-1,5-dimethyl-3-oxo-2,3-dihydro-1H-pyrazole-4-carboxamide]
11.2% | Cc1c(C(=O)NC/C=C/c2ccc3nc(Nc4ccc(CN(C)C)cc4)ncc3c2)c(=O)n(Cc2ccc(F)c(F)c2)n1C [IV-21, 2-(3,4-difluorobenzyl)-N-{(2E)-3-[2-({4-[(dimethylamino)methyl]phenyl}amino)-quinazolin-6-yl]prop-2-en-1-yl}-1,5-dimethyl-3-oxo-2,3-dihydro-1H-pyrazole-4-carboxamide]
13.6% | Cc1c(C(=O)NC/C=C/c2ccc3nc(Nc4ccccc4)ncc3c2)c(=O)n(Cc2ccc(F)c(F)c2)n1C [IV-5, 2-(3,4-difluorobenzyl)-1,5-dimethyl-3-oxo-N-{(2E)-3-[2-(phenylamino)quinazolin-6-yl]prop-2-en-1-yl}-2,3-dihydro-1H-pyrazole-4-carboxamide]
9.5% | CN(C)Cc1ccc(Nc2ncc3cc(C#CCNC(=O)c4cncn(Cc5ccc(F)c(F)c5)c4=O)ccc3n2)cc1 [III-16, 1-(3,4-difluorobenzyl)-N-{3-[2-({4-[(dimethylamino)methyl]phenyl}amino)quinazolin-6-yl]prop-2-yn-1-yl}-6-oxo-1,6-dihydropyrimidine-5-carboxamide]
16.8% | CN(C)Cc1ccc(Nc2ncc3cc(CCCNC(=O)c4cncn(Cc5ccc(F)c(F)c5)c4=O)ccc3n2)cc1 [IV-23, 1-(3,4-difluorobenzyl)-N-{3-[2-({4-[(dimethylamino)methyl]phenyl}amino)quinazolin-6-yl]propyl}-6-oxo-1,6-dihydropyrimidine-5-carboxamide]
16.4% | Cc1c(C#CCNC(=O)c2cncn(Cc3ccc(F)c(F)c3)c2=O)c(=O)n(C(C)C)c2nc(Nc3ccc(N4CCOCC4)cc3)ncc12 [III-29, 1-(3,4-difluorobenzyl)-N-{3-[5-methyl-2-{[4-(morpholin-4-yl)phenyl]amino}-7-oxo-8-(propane-2-yl)-7,8-dihydropyrido[2,3-d]pyrimidin-6-yl]prop-2-yn-1-yl}-6-oxo-1,6-dihydropyrimidine-5-carboxamide]
13.3% | Cc1c(C(=O)NCC#Cc2ccc3nc(Nc4ccc(C(=O)O)cc4)ncc3c2)c(=O)n(Cc2ccc(F)c(F)c2)n1C [III-47]
19% | CC(/C=C/c1ccc2nc(Nc3ccc(CN(C)C)cc3)ncc2c1)NC(=O)c1cncn(Cc2ccc(F)c(F)c2)c1=O (centres unmarked) [IV-32, 1-(3,4-difluorobenzyl)-N-{(3E)-4-[2-({4-[(dimethylamino)methyl]phenyl}amino)-quinazolin-6-yl]but-3-en-2-yl}-6-oxo-1,6-dihydropyrimidine-5-carboxamide]
12.5% | O=C(NCC#Cc1ccc2cn[nH]c2c1)c1cncn(Cc2ccc(F)c(F)c2)c1=O [II-2, 1-(3,4-difluorobenzyl)-N-[3-(1H-indazol-6-yl)prop-2-yn-1-yl]-6-oxo-1,6-dihydropyrimidine-5-carboxamide]
11.6% | CN1CCC(Nc2ccc(Nc3ncc4cc(/C=C/CNC(=O)c5nccn(Cc6ccc(F)c(F)c6)c5=O)ccc4n3)cc2F)CC1 [IV-50, 4-(3,4-difluorobenzyl)-N-{(2E)-3-[2-({3-fluoro-4-[(1-methylpiperidin-4-yl)amino]-phenyl}amino)quinazolin-6-yl]prop-2-en-1-yl}-3-oxo-3,4-dihydropyrazine-2-carboxamide]
11.1% | CN(C)Cc1ccc(Nc2ncc3cc(/C=C/CNC(=O)c4cncn(Cc5ccc(F)c(F)c5)c4=O)ccc3n2)cc1 [IV-3, 1-(3,4-difluorobenzyl)-N-{(2E)-3-[2-({4-[(dimethylamino)methyl]phenyl}amino)-quinazolin-6-yl]prop-2-en-1-yl}-6-oxo-1,6-dihydropyrimidine-5-carboxamide]
12.7% | CN1CCC(N(C)c2ccc(Nc3ncc4cc(C#CCNC(=O)c5cc(Cl)nn(Cc6ccc(F)c(F)c6)c5=O)ccc4n3)cc2)CC1 [III-41, 6-chloro-2(3,4-difluorobenzyl)-N-{3-[2-({4-[methyl(1-methylpiperidin-4-yl)amino]phenyl}amino)quinazolin-6-yl]prop-2-yn-1-yl}-3-oxo-2,3-dihydropyridazine-4-carboxamide]
15.7% | O=C(NCc1ccc(Nc2ncnc3[nH]c(-c4ccccc4)cc23)cc1)c1cncn(Cc2ccc(F)c(F)c2)c1=O [IV-24, 1-(3,4-difluorobenzyl)-6-oxo-N-{4-[(6-phenyl-7H-pyrrolo[2,3-d]pyrimidin-4-yl)amino]benzyl}-1,6-dihydropyrimidine-5-carboxamide]
14.7% | CN(C)Cc1ccc(Nc2ncc3cc(N4CC[C@@H](NC(=O)c5cncn(Cc6ccc(F)c(F)c6)c5=O)C4)ccc3n2)cc1 [IV-29, 1-(3,4-difluorobenzyl)-N-{(3R)-1-[2-({4-[(dimethylamino)methyl]phenyl}amino)-quinazolin-6-yl]pyrrolidin-3-yl}-6-oxo-1,6-dihydropyrimidine-5-carboxamide]
